Read-outs that look alike come from different tables or passages of the source.
How the values were obtained:
[1] = target: T1, human HDAC1 complex (Homo sapiens, UniProt Q13547); assay: HDAC1-Flag in vitro deacetylation assay; format: biochemical
T1 construct: Flag; made in house
Description: Novel compounds were tested for their ability to inhibit histone deacetylase, subtype 1 (HDAC1) using an in vitro deacetylation assay. The enzyme source for this assay was an epitope-tagged human HDAC1 complex immuno-purified from stably expressing mammalian cells. The substrate consisted of a commercial product containing an acetylated lysine side chain (BIOMOL Research Laboratories, Inc., Plymouth Meeting, Pa.). Upon deacetylation of the substrate by incubation with the purified HDAC1 complex, a fluorophore is produced that is directly proportional to the level of deacetylation. Using a substrate concentration at the Km for the enzyme preparation, the deacetylation assay was performed in the presence of increasing concentrations of novel compounds to semi-quantitatively determine the concentration of compound required for 50% inhibition (IC50) of the deacetylation reaction.

[2] = test system: HCT-116 cells; assay: ATP (Vialight) cell proliferation assay, HCT-116; format: cell-based; settings: Homo sapiens
Description: (§1) The novel compounds of the present invention were tested for their ability to inhibit proliferation of the human cervical cancer (HeLa) and colon carcinoma (HCT116) cells.
(§2) In this assay, also referred to as the Vialight Assay, cellular ATP levels are measured as a means of quantifying cellular proliferation. This assay makes use of a bioluminescent method from Cambrex (ViaLight PLUS, cat. #LT07-121). In the presence of ATP, luciferase converts luciferin to oxyluciferin and light. The amount of light produced (emission at 565 nm) is measured and correlates with a relative amount of proliferation. Human cervical cancer (HeLa) or colon carcinoma (HCT116) cells were incubated with vehicle or increasing concentrations of compound for 48, 72 or 96 hours. Cell proliferation was quantified by adding the cell lysis reagent (provided in the Vialight assay kit) directly to culture wells, followed by addition of the ATP-monitoring reagent (containing luciferase/luciferin). The amount of light produced is then measured (emission at 565 nm). The quantity of light produced, as measured by […], is directly proportional to the number of living cells in culture.

[3] = target: Cyp 2D6 (Homo sapiens, UniProt P10635); assay: Cyp inhibition, Cyp2D6; format: in vitro ADME; settings: read-out: Percent Cyp inhibition, 2D6
Cyp 2D6, sequence (P10635 whole entry): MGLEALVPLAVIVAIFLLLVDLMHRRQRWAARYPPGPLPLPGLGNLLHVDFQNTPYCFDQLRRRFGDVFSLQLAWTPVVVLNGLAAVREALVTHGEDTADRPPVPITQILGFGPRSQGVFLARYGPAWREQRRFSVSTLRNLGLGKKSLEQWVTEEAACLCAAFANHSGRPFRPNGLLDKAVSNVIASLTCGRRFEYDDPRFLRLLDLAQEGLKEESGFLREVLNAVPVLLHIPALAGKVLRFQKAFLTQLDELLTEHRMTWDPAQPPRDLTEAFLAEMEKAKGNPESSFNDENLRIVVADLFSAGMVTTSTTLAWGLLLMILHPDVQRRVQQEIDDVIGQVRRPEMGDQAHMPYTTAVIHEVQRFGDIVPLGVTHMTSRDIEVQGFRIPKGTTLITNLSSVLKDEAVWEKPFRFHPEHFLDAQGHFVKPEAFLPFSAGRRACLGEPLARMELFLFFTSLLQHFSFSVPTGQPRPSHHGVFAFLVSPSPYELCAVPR

[4] = target: Cyp 2C9 (Homo sapiens, UniProt P11712); assay: Cyp inhibition, Cyp2C9; format: in vitro ADME; settings: read-out: Percent Cyp inhibition, 2C9
Cyp 2C9, sequence (P11712 whole entry): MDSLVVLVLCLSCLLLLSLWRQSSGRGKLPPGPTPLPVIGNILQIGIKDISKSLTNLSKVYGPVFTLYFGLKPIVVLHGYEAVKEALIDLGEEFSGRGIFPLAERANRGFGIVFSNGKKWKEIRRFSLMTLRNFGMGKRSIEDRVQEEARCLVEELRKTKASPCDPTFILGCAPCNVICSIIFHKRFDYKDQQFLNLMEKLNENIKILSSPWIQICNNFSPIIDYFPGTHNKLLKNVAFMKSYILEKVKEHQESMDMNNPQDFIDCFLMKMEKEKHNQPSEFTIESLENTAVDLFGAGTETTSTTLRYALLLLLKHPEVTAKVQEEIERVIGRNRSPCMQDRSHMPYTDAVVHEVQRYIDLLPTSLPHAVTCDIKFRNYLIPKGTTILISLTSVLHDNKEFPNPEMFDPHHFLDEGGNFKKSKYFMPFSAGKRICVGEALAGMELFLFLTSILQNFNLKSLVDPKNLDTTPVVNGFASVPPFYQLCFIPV

[5] = target: MK-499 binding (Homo sapiens, UniProt Q12809); assay: MK-499 binding; settings: read-out: inflection point for MK-499 binding
MK-499 binding, sequence (Q12809 whole entry): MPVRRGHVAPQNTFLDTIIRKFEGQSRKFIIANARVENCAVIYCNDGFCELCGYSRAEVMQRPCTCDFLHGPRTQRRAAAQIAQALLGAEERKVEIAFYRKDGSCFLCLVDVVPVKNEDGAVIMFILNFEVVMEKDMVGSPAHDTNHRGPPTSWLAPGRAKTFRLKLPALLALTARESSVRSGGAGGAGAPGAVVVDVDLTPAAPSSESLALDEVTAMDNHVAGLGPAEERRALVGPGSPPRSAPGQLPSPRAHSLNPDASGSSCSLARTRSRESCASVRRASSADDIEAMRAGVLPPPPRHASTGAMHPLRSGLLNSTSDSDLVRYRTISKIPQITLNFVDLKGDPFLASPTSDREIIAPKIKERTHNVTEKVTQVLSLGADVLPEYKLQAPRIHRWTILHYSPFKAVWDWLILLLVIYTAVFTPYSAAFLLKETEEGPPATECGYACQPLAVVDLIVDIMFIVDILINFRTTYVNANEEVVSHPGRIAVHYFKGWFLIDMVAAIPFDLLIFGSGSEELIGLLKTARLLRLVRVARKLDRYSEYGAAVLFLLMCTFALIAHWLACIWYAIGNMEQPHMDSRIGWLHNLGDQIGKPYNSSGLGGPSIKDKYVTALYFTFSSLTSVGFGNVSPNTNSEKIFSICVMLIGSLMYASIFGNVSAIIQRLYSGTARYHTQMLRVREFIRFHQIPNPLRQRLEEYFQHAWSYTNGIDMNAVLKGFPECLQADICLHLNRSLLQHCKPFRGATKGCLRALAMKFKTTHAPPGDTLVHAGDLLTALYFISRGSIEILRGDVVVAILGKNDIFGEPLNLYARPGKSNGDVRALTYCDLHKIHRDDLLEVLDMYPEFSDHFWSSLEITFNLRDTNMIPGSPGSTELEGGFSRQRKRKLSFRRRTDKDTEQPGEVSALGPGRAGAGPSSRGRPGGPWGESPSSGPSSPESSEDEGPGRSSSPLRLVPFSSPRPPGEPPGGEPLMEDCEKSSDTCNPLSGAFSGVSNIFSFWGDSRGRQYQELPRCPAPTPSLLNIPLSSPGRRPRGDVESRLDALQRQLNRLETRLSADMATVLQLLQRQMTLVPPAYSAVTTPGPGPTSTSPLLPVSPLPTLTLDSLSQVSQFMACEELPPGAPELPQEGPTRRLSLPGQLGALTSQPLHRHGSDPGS

[6] = target: Cyp3A4 (Homo sapiens, UniProt P08684); assay: Cyp inhibition, Cyp3A4; format: in vitro ADME; settings: read-out: Percent Cyp inhibition, Cyp3A4
Cyp3A4, sequence (P08684 whole entry, species assumed): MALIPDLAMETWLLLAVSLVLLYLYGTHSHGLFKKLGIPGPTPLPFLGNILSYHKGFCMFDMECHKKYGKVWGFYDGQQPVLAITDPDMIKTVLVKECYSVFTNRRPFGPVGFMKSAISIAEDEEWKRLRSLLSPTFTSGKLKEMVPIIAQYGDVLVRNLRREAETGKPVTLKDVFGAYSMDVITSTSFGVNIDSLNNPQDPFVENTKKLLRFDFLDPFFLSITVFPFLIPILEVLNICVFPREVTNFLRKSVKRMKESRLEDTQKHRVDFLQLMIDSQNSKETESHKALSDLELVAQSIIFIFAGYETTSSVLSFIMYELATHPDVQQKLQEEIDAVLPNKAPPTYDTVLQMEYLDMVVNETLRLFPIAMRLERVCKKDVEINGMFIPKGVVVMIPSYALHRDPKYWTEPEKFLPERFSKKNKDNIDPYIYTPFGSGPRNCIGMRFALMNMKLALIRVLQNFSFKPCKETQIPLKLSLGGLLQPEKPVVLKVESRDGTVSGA

[7] = test system: human cervical cancer (HeLa) or colon carcinoma (HCT116) cells; assay: Prol-72 hr, ATP (Vialight) proliferation assay, cell line not given; format: cell-based; settings: Table 2, IP = inflection point, cell line not stated
Description: as §1, §2

[8] = Table 2, IP = inflection point, read-out: HDAC1 IP*
[9] = Table 3, IP = inflection point, read-out: HDAC 1 IP*

T1 sequence (Q13547 whole entry, one chain of several): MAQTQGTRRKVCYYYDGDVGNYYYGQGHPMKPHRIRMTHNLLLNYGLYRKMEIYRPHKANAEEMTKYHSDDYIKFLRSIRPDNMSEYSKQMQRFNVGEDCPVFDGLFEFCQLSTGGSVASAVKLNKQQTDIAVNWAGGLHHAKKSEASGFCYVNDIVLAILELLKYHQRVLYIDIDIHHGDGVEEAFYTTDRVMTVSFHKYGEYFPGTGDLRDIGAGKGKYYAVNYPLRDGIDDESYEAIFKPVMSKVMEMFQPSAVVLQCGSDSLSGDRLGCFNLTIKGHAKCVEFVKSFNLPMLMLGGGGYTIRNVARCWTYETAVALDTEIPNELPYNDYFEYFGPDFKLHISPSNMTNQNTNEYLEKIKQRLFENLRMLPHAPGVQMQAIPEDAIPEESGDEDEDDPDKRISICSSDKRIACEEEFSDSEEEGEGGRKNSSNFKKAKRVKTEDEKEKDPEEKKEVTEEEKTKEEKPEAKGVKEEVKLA

SMILES | IC50 ([1]; read-out: in vitro HDAC1 IC50) | IC50 [2] | inhibition at 10 µM [3] | inhibition at 10 µM [4] | IC50 [5] | inhibition at 10 µM [6] | IC50 [1, 8] | IC50 [7] | IC50 [1, 9]
CC(=O)Nc1ccc(C(=O)Nc2nc(-c3ccccc3)ccc2N)cc1 [4-(Acetylamino)-N-(3-amino-6-phenylpyridin-2-yl)benzamide] | 0.086 µM | 2.05 µM |  |  |  |  |  |  | 
Nc1ccc(-c2ccccc2)nc1NC(=O)c1ccc(CNC(=O)OCc2ccccc2)cc1 [Benzyl(4-{[(3-amino-6-phenylpyridin-2-yl)amino]carbonyl}benzyl)carbamate] | 0.032 µM | 0.59 µM | 24% | 25% | 12.2 µM | 7% |  |  | 
COC(=O)NCc1ccc(C(=O)Nc2nc(-c3ccccc3)ccc2N)cc1 [Methyl(4-{[(3-amino-6-phenylpyridin-2-yl)amino]carbonyl}benzyl)carbamate] | 0.037 µM | 1.2 µM | 27% | 49% | > 10 µM | 29% |  |  | 
CC(C)(C)c1ccc(C(=O)Nc2nc(-c3ccccc3)ccc2N)cc1 [N-(3-amino-6-phenyl-2-pyridinyl)-4-(1,1-dimethylethyl) benzamide] |  |  |  |  |  |  | 0.235 µM | 20 µM | 
Nc1ccc(-c2ccccc2)nc1NC(=O)c1ccccc1 [N-(3-amino-6-phenylpyridin-2-yl)benzamide] |  |  |  |  |  |  | 1.16 µM |  | 
Nc1ccc(-c2ccccc2)nc1NC(=O)c1ccc(CNC(=O)OCc2ccccn2)cc1 [Pyridin-2-ylmethyl(4-{[(3-amino-6-phenylpyridin-2-yl)amino]carbonyl}benzyl)carbamate] | 0.035 µM | 0.56 µM | 24% | 47% | 2540 µM | 27% |  |  | 
Nc1ccc(-c2ccccc2)nc1NC(=O)c1ccc(CNC(=O)OCc2cccnc2)cc1 [Pyridin-3-ylmethyl[(4-{[(3-amino-6-phenylpyridin-2-yl)amino]carbonyl}phenyl)methyl]carbamate] | 0.084 µM | 0.58 µM | 55% | 54% | > 30 µM | 46% |  |  | 
COC(=O)c1ccc(C(=O)Nc2nc(-c3ccccc3)ccc2N)cc1 [benzoic acid, methyl 4-[[(3-amino-6-phenyl-2-pyridinyl)amino]carbonyl]benzoate] |  |  |  |  |  |  | 0.195 µM | 20 µM | 
CCOC(=O)NCc1ccc(C(=O)Nc2nc(-c3ccccc3)ccc2N)cc1 [ethyl (4-{[(3-amino-6-phenylpyridin-2-yl)amino]carbonyl}benzyl)carbamate] |  |  |  |  |  |  |  |  | 0.011 µM
Nc1ccc(-c2ccccc2)nc1NC(=O)c1ccc(CNC(=O)Oc2ccccc2)cc1 [phenyl (4-{[(3-amino-6-phenylpyridin-2-yl)amino]carbonyl}benzyl)carbamate] |  |  |  |  |  |  |  |  | 0.012 µM
Nc1ccc(-c2cccs2)nc1NC(=O)c1ccc(CNC(=O)OCc2cccnc2)cc1 [pyridin-3-ylmethyl {[4-({[3-amino-6-(2-thienyl)pyridin-2-yl]amino}carbonyl)phenyl]methyl}carbamate] | 0.056 µM | 0.56 µM |  |  |  |  |  |  | 

Reference: US8461189B2, “Pyridyl derivatives as histone deacetylase inhibitors” (Merck Sharp & Dohme Corp., priority 2007, dated 2013)
